Data as given in patent US11147796B2, “Agent for preventing or ameliorating hearing impairment” (Tohoku University, priority 2017, dated 2021).

**Q.** Which melting point does the source give for O=C(CC(C(=O)O)c1c[nH]c2cccc(Cl)c12)c1ccc(F)cc1F (centres unmarked) [Compound (2-1), 2-(4-chloro-1H-indol-3-yl)-4-(2,4-difluorophenyl)-4-oxo-butanoic Acid] here?
**A.** 203 to 204 °C

**Q.** Which melting point does the source give for O=C(CC(C(=O)O)c1c[nH]c2ccc(F)cc12)c1ccc(F)cc1F (centres unmarked) [Compound (3-1), 4-(2,4-difluorophenyl)-2-(5-fluoro-1H-indol-3-yl)-4-oxo-butanoic Acid] here?
**A.** 207 to 208 °C

**Q.** Which melting point does the source give for O=C(CC(C(=O)O)c1c[nH]c2ccc(Cl)cc12)c1ccc(F)cc1F (centres unmarked) [Compound (3-2), 2-(5-chloro-1H-indol-3-yl)-4-(2,4-difluorophenyl)-4-oxo-butanoic Acid] here?
**A.** 236 to 239 °C

**Q.** With Cc1ccc2[nH]cc(C(CC(=O)c3ccc(F)cc3F)C(=O)O)c2c1 (centres unmarked) [Compound (3-3), 4-(2,4-difluorophenyl)-2-(5-methyl-1H-indol-3-yl)-4-oxo-butanoic Acid] as the compound, how does the melting point read?
**A.** 200 to 202 °C

**Q.** For COc1ccc2[nH]cc(C(CC(=O)c3ccc(F)cc3F)C(=O)O)c2c1 (centres unmarked) [Compound (3-4), 4-(2,4-difluorophenyl)-2-(5-methoxy-1H-indol-3-yl)-4-oxo-butanoic Acid], which melting point is on record?
**A.** 205 to 206 °C

**Q.** Which melting point does the source give for O=C(CC(C(=O)O)c1c[nH]c2cc(F)ccc12)c1ccc(F)cc1F (centres unmarked) [Compound (4-1), 4-(2,4-difluorophenyl)-2-(6-fluoro-1H-indol-3-yl)-4-oxo-butanoic Acid] here?
**A.** 210 to 214 °C

**Q.** With O=C(CC(C(=O)O)c1c[nH]c2cc(OCc3ccccc3)ccc12)c1ccc(F)cc1F (centres unmarked) [Compound (4-2), 2-(6-benzyloxy-1H-indol-3-yl)-4-(2,4-difluorophenyl)-4-oxo-butanoic Acid] as the compound, how does the melting point read?
**A.** 177 to 178 °C

**Q.** With O=C(CC(C(=O)O)c1c[nH]c2c(Cl)cccc12)c1ccc(F)cc1F (centres unmarked) [Compound (5-1), 2-(7-chloro-1H-indol-3-yl)-4-(2,4-difluorophenyl)-4-oxo-butanoic Acid] as the compound, how does the melting point read?
**A.** 225 to 227 °C

**Q.** With COc1cccc2c(C(CC(=O)c3ccc(F)cc3F)C(=O)O)c[nH]c12 (centres unmarked) [Compound (5-2), 4-(2,4-difluorophenyl)-2-(7-methoxy-1H-indol-3-yl)-4-oxo-butanoic Acid] as the compound, how does the melting point read?
**A.** 181 to 183 °C

**Q.** With Cn1cc(C(CC(=O)c2ccc(F)cc2F)C(=O)O)c2ccccc21 (centres unmarked) [Compound (6-1), 4-(2,4-difluorophenyl)-2-(1-methyl-1H-indol-3-yl)-4-oxo-butanoic Acid] as the compound, how does the melting point read?
**A.** 192 to 193 °C

**Q.** For CCCn1cc(C(CC(=O)c2ccc(C)cc2C)C(=O)O)c2ccccc21 (centres unmarked) [compound 6, 4-(2,4-Dimethylphenyl)-2-(1-propyl-1H-indol-3-yl)-4-oxo-butanoic Acid], which melting point is on record?
**A.** 139 to 141 °C

**Q.** Which melting point does the source give for O=C(CC(C(=O)O)c1c[nH]c2ccccc12)c1ccccc1 (centres unmarked) [compound #20, 4-Phenyl-2-(1H-indol-3-yl)-4-oxo-butanoic Acid] here?
**A.** 149 to 150 °C

**Q.** Which melting point does the source give for CCCCOc1ccc2cccc(CC(=O)O)c2c1 [compound #33, α-(7-Butoxy-1-naphthalenyl)-acetic Acid] here?
**A.** 102 to 104 °C

**Q.** Which melting point does the source give for CCCCCOc1ccc2cccc(CC(=O)O)c2c1 [compound #34, α-(7-Pentoxy-1-naphthalenyl)-acetic Acid] here?
**A.** 104 to 106 °C

**Q.** For CCOc1ccc2[nH]cc(CC(=O)O)c2c1 [compound #37, 5-Ethoxy-3-indoleacetic Acid], which melting point is on record?
**A.** 86 to 92.7 °C

**Q.** Which melting point does the source give for CCCOc1ccc2[nH]cc(CC(=O)O)c2c1 [compound #38, 5-(1-Propoxy)-3-indoleacetic Acid] here?
**A.** 133.6 to 136.8 °C

**Q.** For CCCCOc1ccc2[nH]cc(CC(=O)O)c2c1 [compound #39, 5-(1-Butoxy)-3-indoleacetic Acid], which melting point is on record?
**A.** 137.8 to 141.1 °C
